From US10479780B2, “Aminopyrazole derivatives” (Chugai Seiyaku Kabushiki Kaisha, priority 2015, dated 2019) come the findings set out here.

Read-outs that look alike come from different tables or passages of the source.

What all share (assay type): biochemical
Test [1] addresses T1, human Yes1 enzyme (Homo sapiens, UniProt P07947).
T1 construct: made in house
Description: Yes1 enzyme inhibitory activity (time-resolved fluorometry, biotinylated peptide phosphorylation). To be noted: read-out: YES_IC50. A digest of the protocol: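 Inhibition was expressed against a compound-free control to give IC50, using TR-FRET read-out (Eu-cryptate anti-pTyr antibody, streptavidin-XL665).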

For test [2], the target named is T2, human Lck enzyme (Homo sapiens, UniProt P06239).
T2 construct: purchased Carna Biosciences, Inc. 08-170
T2 sequence (P06239 whole entry): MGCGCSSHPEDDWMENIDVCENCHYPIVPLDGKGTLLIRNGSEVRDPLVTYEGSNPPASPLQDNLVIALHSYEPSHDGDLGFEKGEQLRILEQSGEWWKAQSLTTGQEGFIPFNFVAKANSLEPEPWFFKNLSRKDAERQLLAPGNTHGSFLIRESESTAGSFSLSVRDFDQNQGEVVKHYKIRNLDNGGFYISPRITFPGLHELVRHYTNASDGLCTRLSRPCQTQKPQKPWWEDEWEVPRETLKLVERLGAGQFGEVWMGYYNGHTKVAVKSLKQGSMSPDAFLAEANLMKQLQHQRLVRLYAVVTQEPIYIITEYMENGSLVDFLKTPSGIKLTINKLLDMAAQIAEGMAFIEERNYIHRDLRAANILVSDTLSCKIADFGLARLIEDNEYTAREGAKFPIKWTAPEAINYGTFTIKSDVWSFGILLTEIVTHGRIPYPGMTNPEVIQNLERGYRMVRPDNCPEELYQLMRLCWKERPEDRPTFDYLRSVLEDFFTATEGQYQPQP
Kind of test: Lck enzyme inhibitory activity (time-resolved fluorometry, biotinylated peptide phosphorylation). Conditions: read-out: LCK_IC50. A digest of the protocol:
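Readout pairs a europium cryptate-labelled anti-phosphotyrosine antibody with XL665-streptavidin, measured by time-resolved fluorescence. IC50 derived from percent inhibition against untreated controls.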

Test [3] has as its target T3, human Src enzyme (Homo sapiens, UniProt P12931).
T3 construct: purchased Carna Biosciences, Inc. 08-173
Kind of test: Src enzyme inhibitory activity (time-resolved fluorometry, biotinylated peptide phosphorylation). To be noted: read-out: SRC_IC50. The procedure, abridged: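 Compounds were tested for blocking tyrosine phosphorylation of a biotinylated peptide substrate by recombinant human Src. Phosphorylated product was quantified by time-resolved fluorometry using europium cryptate and XL665 conjugates, and IC50 was calculated against the compound-free control.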

Setting [4] is: biotinylated peptide phosphorylation.

T1 sequence (P07947 whole entry): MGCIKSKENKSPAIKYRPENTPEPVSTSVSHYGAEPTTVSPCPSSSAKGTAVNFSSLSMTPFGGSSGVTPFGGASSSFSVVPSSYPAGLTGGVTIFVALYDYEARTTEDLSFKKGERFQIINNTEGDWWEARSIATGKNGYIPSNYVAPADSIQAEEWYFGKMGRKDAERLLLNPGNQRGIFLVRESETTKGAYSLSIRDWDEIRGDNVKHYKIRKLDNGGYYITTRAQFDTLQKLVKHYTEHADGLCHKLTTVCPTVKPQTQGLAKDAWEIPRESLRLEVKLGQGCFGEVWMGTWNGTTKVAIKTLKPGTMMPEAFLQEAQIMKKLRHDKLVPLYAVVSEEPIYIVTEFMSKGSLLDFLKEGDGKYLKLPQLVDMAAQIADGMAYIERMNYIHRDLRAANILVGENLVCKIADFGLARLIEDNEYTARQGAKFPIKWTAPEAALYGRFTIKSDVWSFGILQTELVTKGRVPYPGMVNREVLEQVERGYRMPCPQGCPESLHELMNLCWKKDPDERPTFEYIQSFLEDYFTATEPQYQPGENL
T3 sequence (P12931 whole entry): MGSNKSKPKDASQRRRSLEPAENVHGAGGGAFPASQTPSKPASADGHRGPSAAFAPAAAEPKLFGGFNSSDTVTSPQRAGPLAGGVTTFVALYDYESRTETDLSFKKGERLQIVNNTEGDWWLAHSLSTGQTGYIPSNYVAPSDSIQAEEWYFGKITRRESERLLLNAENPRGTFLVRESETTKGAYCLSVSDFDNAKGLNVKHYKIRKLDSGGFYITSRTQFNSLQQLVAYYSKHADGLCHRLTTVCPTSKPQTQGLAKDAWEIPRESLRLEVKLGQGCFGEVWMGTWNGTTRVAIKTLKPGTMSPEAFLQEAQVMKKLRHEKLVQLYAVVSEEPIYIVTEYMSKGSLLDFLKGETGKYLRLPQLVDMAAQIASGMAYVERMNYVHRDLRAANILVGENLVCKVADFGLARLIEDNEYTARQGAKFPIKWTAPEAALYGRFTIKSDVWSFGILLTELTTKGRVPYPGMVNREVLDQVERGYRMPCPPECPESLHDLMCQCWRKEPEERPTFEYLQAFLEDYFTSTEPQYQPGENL

Regarding `CC(C)N1CCC(c2cc3cc(C(=O)c4cnn(-c5ccc(Oc6cccc(F)c6)cc5F)c4N)[nH]c3cc2F)CC1` [Example 5-1-002, [5-amino-1-[2-fluoro-4-(3-fluorophenoxy)phenyl]pyrazol-4-yl]-[6-fluoro-5-(1-propan-2-ylpiperidin-4-yl)-1H-indol-2-yl]methanone], the IC50 in test [1] is 0.87 nM; in test [2], 2.2 nM; in test [3] it was 6.1 nM.

With `Cc1cc(Oc2ccccc2F)ccc1-n1ncc(C(=O)c2cc3cc(OC(F)F)c(N4CCCS4(=O)=O)cc3[nH]2)c1N` [Example 4-25-002, [5-amino-1-[4-(2-fluorophenoxy)-2-methylphenyl]pyrazol-4-yl]-[5-(difluoromethoxy)-6-(1,1-dioxo-1,2-thiazolidin-2-yl)-1H-indol-2-yl]methanone], the IC50 came out at 3.1 nM in test [1] (setting [4]), 15 nM in test [2] (setting [4]) and 37 nM in test [3] (setting [4]).

For the compound `Cc1cc(Oc2ccccc2F)ncc1-n1ncc(C(=O)c2cc3cc(F)c(NS(=O)(=O)NC4CCOCC4)cc3[nH]2)c1N` [Example 4-5-012, [5-amino-1-[6-(2-fluorophenoxy)-4-methylpyridin-3-yl]pyrazol-4-yl]-[5-fluoro-6-(oxan-4-ylsulfamoylamino)-1H-indol-2-yl]methanone], the IC50 worked out at 1 nM in test [1] (setting [4]), 12 nM in test [2] (setting [4]) and 78 nM in test [3] (setting [4]).

For `Cc1cc(Oc2ccccc2F)ccc1-n1ncc(C(=O)c2cc3cc(F)c(NC4CN(S(C)(=O)=O)C4)cc3[nH]2)c1N` [Example 5-1-118], the results for the IC50 in test [1], in test [2] and in test [3] were 0.85 nM, 2.7 nM and 11 nM, respectively.

As to `Cc1cc(Oc2ccccc2F)ccc1-n1ncc(C(=O)c2cc3cc(OC4CCOCC4)c(NS(C)(=O)=O)cc3[nH]2)c1N` [Example 4-24-036, N-{2-{5-amino-1-[4-(2-fluorophenoxy)-2-methylphenyl]pyrazole-4-carbonyl}-5-(oxan-4-yloxy)-1H-indol-6-yl}methanesulfonamide], the IC50 came to 4.2 nM in test [1] (setting [4]), 20 nM in test [2] (setting [4]) and 120 nM in test [3] (setting [4]).

Regarding `Cc1cc(Oc2ccccc2F)ccc1-n1ncc(C(=O)c2cc3cc(F)c(N4C(=O)N[C@@H](Cc5ccccc5)C4=O)cc3[nH]2)c1N` [Example 5-1-436, (5S)-3-[2-[5-amino-1-[4-(2-fluorophenoxy)-2-methylphenyl]pyrazole-4-carbonyl]-5-fluoro-1H-indol-6-yl]-5-benzylimidazolidine-2,4-dione], the IC50 was 1.7 nM in test [1] (setting [4]), 35 nM in test [2] (setting [4]) and 230 nM in test [3] (setting [4]).

For the compound `Cc1cc2cc(C(=O)c3cnn(-c4cnc(Oc5ccccc5F)cc4C)c3N)[nH]c2cc1NS(=O)(=O)c1cncc(C(F)(F)F)c1` [Example 5-1-487, N-[2-[5-amino-1-[6-(2-fluorophenoxy)-4-methylpyridin-3-yl]pyrazole-4-carbonyl]-5-methyl-1H-indol-6-yl]-5-(trifluoromethyl) pyridine-3-sulfonamide], the IC50 in test [1] (setting [4]) was 11 nM; in test [2] (setting [4]), 110 nM; in test [3] (setting [4]), 510 nM.

In the case of `Cc1cc(Oc2ccccc2F)ncc1-n1ncc(C(=O)c2cc3cc(OC(F)F)c(NS(C)(=O)=O)cc3[nH]2)c1N` [Example 4-24-008, N-[2-[5-amino-1-[6-(2-fluorophenoxy)-4-methylpyridin-3-yl]pyrazole-4-carbonyl]-5-(difluoromethoxy)-1H-indol-6-yl]methanesulfonamide], the IC50 in test [1] (setting [4]) came to 2.1 nM; in test [2] (setting [4]), 19 nM; in test [3] (setting [4]) it was 99 nM.

As for `Cc1cc2cc(C(=O)c3cnn(-c4cnc(Oc5c(F)cccc5F)cc4C)c3N)[nH]c2cc1NS(=O)(=O)N1C2CCC1COC2` [Example 5-1-291, N-[2-[5-amino-1-[6-(2,6-difluorophenoxy)-4-methylpyridin-3-yl]pyrazole-4-carbonyl]-5-methyl-1H-indol-6-yl]-3-oxa-8-azabicyclo[3.2.1] octane-8-sulfonamide], the IC50 in test [1] was 10 nM; in test [2], 130 nM; in test [3] it was 420 nM.

For the compound `Cc1cc2cc(C(=O)c3cnn(-c4ccc(Oc5ccccc5F)cc4C)c3N)[nH]c2cc1NS(=O)(=O)c1cccc(C#N)n1` [Example 5-1-535, N-[2-[5-amino-1-[4-(2-fluorophenoxy)-2-methylphenyl]pyrazole-4-carbonyl]-5-methyl-1H-indol-6-yl]-6-cyanopyridine-2-sulfonamide], the IC50 is 4.1 nM in test [1] (setting [4]), 78 nM in test [2] (setting [4]) and 390 nM in test [3] (setting [4]).

As to `Cc1ccccc1-c1cc2[nH]c(C(=O)c3cnn(-c4cnc(Oc5c(F)cccc5F)cc4C)c3N)cc2cc1OC1CCN(C2CS(=O)(=O)C2)CC1` [Example 5-1-338, [5-amino-1-[6-(2,6-difluorophenoxy)-4-methylpyridin-3-yl]pyrazol-4-yl]-[5-[1-(1,1-dioxothietan-3-yl)piperidin-4-yl]oxy-6-(2-methylphenyl)-1H-indol-2-yl]methanone], the IC50 in test [1] was determined as 3 nM; in test [2] it was 30 nM; in test [3] it was 180 nM.

As for `Cc1cc(-n2ncc(C(=O)c3cc4cc(OCC(F)F)c(N5CCOCC5)cc4[nH]3)c2N)ccc1Oc1ccccc1F` [Example 5-1-169, [5-amino-1-[4-(2-fluorophenoxy)-3-methylphenyl]pyrazol-4-yl]-[5-(2,2-difluoroethoxy)-6-morpholin-4-yl-1H-indol-2-yl] methanone], the IC50 in test [1] worked out at 0.88 nM; in test [2], 46 nM; in test [3], 100 nM.

Regarding `Cc1cc(Oc2c(F)cccc2F)ncc1-n1ncc(C(=O)c2cc3cc(OC(F)F)c(NC4COC4)cc3[nH]2)c1N` [Example 4-23-014, [5-amino-1-[6-(2,6-difluorophenoxy)-4-methylpyridin-3-yl]pyrazol-4-yl]-[5-(difluoromethoxy)-6-(oxetan-3-ylamino)-1H-indol-2-yl]methanone], the figures for the IC50 in test [1] (setting [4]), in test [2] (setting [4]) and in test [3] (setting [4]) were 3.5 nM, 9.2 nM and 22 nM, respectively.

In the case of `Cc1cc(Oc2c(F)cccc2F)ncc1-n1ncc(C(=O)c2cc3cc(OC(F)F)c(N4CCOC4=O)cc3[nH]2)c1N` [Example 4-21-009, 3-[2-[5-amino-1-[6-(2,6-difluorophenoxy)-4-methylpyridin-3-yl]pyrazole-4-carbonyl]-5-(difluoromethoxy)-1H-indol-6-yl]-1,3-oxazolidin-2-one], the IC50 stood at 0.83 nM in test [1] (setting [4]), 2.7 nM in test [2] (setting [4]) and 9.9 nM in test [3] (setting [4]).

For `Cc1cc(Oc2ccccc2F)ccc1-n1ncc(C(=O)c2cc3cc(OCC(F)F)c(N4CCC(O)CC4)cc3[nH]2)c1N` [Example 5-1-087, [5-amino-1-[4-(2-fluorophenoxy)-2-methylphenyl]pyrazol-4-yl]-[5-(2,2-difluoroethoxy)-6-(4-hydroxypiperidin-1-yl)-1H-indol-2-yl]methanone], the values for the IC50 in test [1], in test [2] and in test [3] were 0.77 nM, 3.9 nM and 13 nM, respectively.

In the case of `Cc1cc(Oc2c(F)cccc2F)ncc1-n1ncc(C(=O)c2cc3cc(OC4CCN(C5CS(=O)(=O)C5)CC4)c(-c4ccccc4C(F)(F)F)cc3[nH]2)c1N` [Example 5-1-388, [5-amino-1-[6-(2,6-difluorophenoxy)-4-methylpyridin-3-yl]pyrazol-4-yl]-[5-[1-(1,1-dioxothietan-3-yl)piperidin-4-yl]oxy-6-[2-(trifluoromethyl)phenyl]-1H-indol-2-yl] methanone], the figures for the IC50 in test [1], in test [2] and in test [3] were 4.2 nM, 47 nM and 220 nM, respectively.

As to `Cc1cc2cc(C(=O)c3cnn(-c4cnc(Oc5ccccc5F)cc4C)c3N)[nH]c2cc1NS(=O)(=O)CC(=O)N1CCCC1` [Example 5-1-121, N-[2-[5-amino-1-[6-(2-fluorophenoxy)-4-methylpyridin-3-yl]pyrazole-4-carbonyl]-5-methyl-1H-indol-6-yl]-2-oxo-2-pyrrolidin-1-ylethanesulfonamide], the IC50 is 1.7 nM in test [1], 14 nM in test [2] and 90 nM in test [3].

`Cc1cc(Oc2ccccc2F)ncc1-n1ncc(C(=O)c2cc3cc(F)c(NS(=O)(=O)NC(C)C)cc3[nH]2)c1N` [Example 5-1-021, [5-amino-1-[6-(2-fluorophenoxy)-4-methylpyridin-3-yl]pyrazol-4-yl]-[5-fluoro-6-(propan-2-ylsulfamoylamino)-1H-indol-2-yl] methanone]: the IC50 worked out at 9.8 nM in test [1], 72 nM in test [2] and 310 nM in test [3].

`Cc1cc2cc(C(=O)c3cnn(-c4cnc(Oc5c(F)cccc5F)cc4C)c3N)[nH]c2cc1NS(=O)(=O)c1cncc(Cl)c1` [Example 5-1-541, N-[2-[5-amino-1-[6-(2,6-difluorophenoxy)-4-methylpyridin-3-yl]pyrazole-4-carbonyl]-5-methyl-1H-indol-6-yl]-5-chloropyridine-3-sulfonamide]: the results for the IC50 in test [1] (setting [4]), in test [2] (setting [4]) and in test [3] (setting [4]) were 12 nM, 280 nM and 660 nM, respectively.

With `Cc1cc(Oc2ccccc2F)cc(F)c1-n1ncc(C(=O)c2cc3cc(OC(F)F)c(N4CCOC4=O)cc3[nH]2)c1N` [Example 4-25-019, 3-[2-[5-amino-1-[2-fluoro-4-(2-fluorophenoxy)-6-methylphenyl]pyrazole-4-carbonyl]-5-(difluoromethoxy)-1H-indol-6-yl]-1,3-oxazolidin-2-one], the IC50 in test [1] (setting [4]) is 5.2 nM; in test [2] (setting [4]), 13 nM; in test [3] (setting [4]), 43 nM.
